Results published in patent US20200281908A1, “MEANS FOR TREATING DEMENTIA OF VARIOUS ETIOLOGY” (priority 2016, published 2020).

How the values were obtained:
[1] = system: streptozotocin-induced rat model of AD; test: CPAR test on a streptozotocin-induced rat model of AD; assay type: in vivo; settings: for Latent period of going into the dark chamber, Recalling, 24 hours later / Latent period of going into the dark chamber, Recalling, 7 days later / Latent period of going into the dark chamber, Recalling, 14 days later / Latent period of going into the dark chamber, Training LP1 / Number of animals with amnesia that went into the dark chamber during the CPAR recalling test/Number of animals in the group, 24 hours later / Number of animals with amnesia that went into the dark chamber during the CPAR recalling test/Number of animals in the group, 7 days later / Number of animals with amnesia that went into the dark chamber during the CPAR recalling test/Number of animals in the group, 14 days later / percentage of rats with reflex impairment (went into the dark chamber), 24 hours later / percentage of rats with reflex impairment (went into the dark chamber), 7 days later / percentage of rats with reflex impairment (went into the dark chamber), 14 days later: rats, n = 12; for Latent period of going into the dark chamber, Recalling, 24 hours later / Latent period of going into the dark chamber, Recalling, 7 days later / Latent period of going into the dark chamber, Recalling, 14 days later / Latent period of going into the dark chamber, Training LP1: M ± m
Procedure: Example 2. The aim of the study is to assess the specific pharmacological activity of the liposomal formulation of methyl 4-[2-oxo-1,2-bis[[2-(4-pyridinyl)ethyl]amino]ethyl]benzoate succinate in comparison with the pharmaceutical substance of this compound and memantine on memory loss when modelling AD using neurotoxin streptozotocin in rats.
In this study, the modelling of AD was performed using the procedure recommended in the Methodological Recommendations for the preclinical study of nootropic drugs.
According to the procedure, AD modeling was performed by introducing streptozotocin toxin into the cerebral ventricles of the rat.
The surgical neurotoxin injection into the brain was performed in anaesthetized animals (with chloral hydrate at a dose of 200 mg/kg, ip) in a stereotaxic apparatus.
First, the cranial trepanation was performed in animals according to the stereotaxic coordinates; AP (1.0), L (1.5-2). Streptozotocin at a dose of 3 mg/kg was injected bilaterally into the lateral ventricles of the brain according to the stereotaxic coordinates: AP (1.0): L (1.5-2): H (3.0). The toxin was injected at a rate of 0.1 μl per minute; the injected solution volume was 5 μl in each ventricle
The cranial trepanation of the control (sham-operated) animals was performed according to the stereotaxic coordinates: AP (1.0): L (1.5-2), and distilled water was then injected bilaterally into the lateral ventricles of the brain also according to the stereotaxic coordinates, in the same volume and at the same rate as the studied drugs.
1 hour after surgery, the intragastric administration of substances to rats started, which continued for 14 days.
The test pharmaceutical substance (Prototype) and the current liposomal formulation of this compound were administered to rats in 2 doses of 0.25 mg/kg and 1 mg/kg. Memantine at a dose of 1 mg/kg. Distilled water was administered to control animals.
The day after the last injection of substances, procedures that allow testing the training and memory of animals started.
Evaluation of the antiamnesic effect of PAM-12 in comparison with memantine was performed using the CPAR method. A detailed description of the CPAR method is given in Example 1. […] Memory loss was determined in the terms of the reduction of the latent time of the CPAR and increase in the number of animals that went into the dark chamber during reflex recalling test, compared to that of the control
The animals were randomly divided into 8 arms.
1. Intact control—distilled water, intragastrically (i.g.), 14 days-12 rats.
2. Control—sham-operated animals—distilled water, i.g. 14 days-12 rats.
3. Active control—injection of streptozotocin (STZ) 3 mg/kg into the cerebral ventricles+distilled water, i.g., 14 days-12 rats
4. Prototype 0.25 mg/kg, i.g., 14 days: the first injection 1 hour after the injection of STZ into the cerebral ventricles and then daily for 14 days-12 rats.
5. Prototype 1.0 mg/kg, i.g., 14 days: the first injection 1 hour after the injection of STZ into the cerebral ventricles and then daily for 14 days-12 rats.
6. Current liposomal formulation 0.25 mg/kg, i.g., 14 days: the first injection 1 hour after the injection of STZ into the cerebral ventricles and then daily for 14 days-12 rats
7. Current liposomal formulation 1.0 mg/kg, i.g., 14 days: the first injection 1 hour after the injection of STZ into the cerebral ventricles and then daily for 14 days-12 rats.
8. Memantine 1 mg/kg. i.g., 14 days: the first injection 1 hour after the injection of STZ into the cerebral ventricles and then daily for 14 days-12 rats.

[2] = system: CPAR amnesia caused by MES in rats; test: CPAR (conditioned passive avoidance reflex) amnesia caused by maximal electroshock seizure (MES); assay type: in vivo, rat; settings: n = 10; for CPAR recalling test 24 hours later: Latent time of the reflex / CPAR training Latent time of the reflex: M ± m
Excerpt: Example 1. The aim of the study is to assess the effect of the liposomal formulation of methyl 4-[2-oxo-1,2-bis[[2-(4-pyridinyl)ethyl]amino]ethyl]benzoate succinate on conditioned passive avoidance reflex (CPAR) amnesia caused by maximal electroshock seizure (MES) in comparison with the pharmaceutical substance of this compound and piracetam in rats.
CPAR is a basic method for studying the effects of drugs affecting memory in any manner whatsoever. When exposed to CPAR, it is possible to identify both memory improvement and its deterioration (amnesic effect). CPAR is based on the inborn hole exploratory behaviour of rodents—the tendency to hide in a limited darkened space.
The apparatus for studying the action of drugs is a dark chamber with an electrode floor. The dark chamber is connected through a square guillotine door with a hinged platform. The hinged platform is illuminated by a 60 watt lamp. The dark chamber is located oil the laboratory table, and the platform hangs above the floor at a height of 800 mm.
First, CPAR was developed in rats. Rats were placed on a lighted platform in from of the dark chamber of the apparatus with their tail toward the inlet and recorded latent time of the reflex. Then, in the dark chamber, the rat received a single 10-second pain stimulation with an electric current (0.3 mA) through the electrode floor (training)
Amnesia was invoked by MES Electric stimulus (250 V, 115-120 mA, 50 Hz, for 0.1 sec) for obtaining MES was applied to the rat through special cornal (ocular) electrodes, previously soaked in saline MES was performed directly after CPAR training.
Experimental groups. The animals were divided into 7 arms: • Arm I: control without amnesia (saline). • Arm II: control with amnesia (MES) • Arm III: Prototype 0.25 mg/kg+MES. • Arm IV: Prototype 1.0 mg/kg+MES. • Arm V: Current liposomal formulation 0.25 mg/kg+MES. • Arm VI: Current liposomal formulation 1.0 mg/kg+MES. • Arm VII: Piracetam 400 mg/kg+MES.
The prototype and the current liposomal composition were administered intragastrically. Piracetam was administered once intraperitoneally 40 minutes before the experiment

[3] = 1.0 mg/kg i.g. + STZ (memantine printed p.o.)
[4] = 400 mg/kg once intraperitoneally + MES
[5] = 0.25 mg/kg once intragastrically + MES
[6] = 1 mg/kg once intragastrically + MES

Structure (SMILES): CC12CC3CC(C)(C1)CC(N)(C3)C2 [Memantine]
- antiamnesic effect in rats of the streptozotocin-induced AD model ([1]; 1 mg/kg): pronounced antiamnesic effect
- Latent period of going into the dark chamber, Recalling, 24 hours later ([1]; 1.0 mg/kg i.g. 14 days + STZ): 166.4 ± 13.6 s
- Latent period of going into the dark chamber, Recalling, 7 days later ([1]; 1.0 mg/kg i.g. 14 days + STZ): 166.4 ± 13.6 s
- Latent period of going into the dark chamber, Recalling, 14 days later ([1]; 1.0 mg/kg i.g. 14 days + STZ): 143.5 ± 19.2 s
- Latent period of going into the dark chamber, Training LP1 ([1]; 1.0 mg/kg i.g. 14 days + STZ): 20.4 ± 3.4 s
- Number of animals with amnesia that went into the dark chamber during the CPAR recalling test/Number of animals in the group, 24 hours later [1, 3]: 1/12
- Number of animals with amnesia that went into the dark chamber during the CPAR recalling test/Number of animals in the group, 7 days later [1, 3]: 1/12
- Number of animals with amnesia that went into the dark chamber during the CPAR recalling test/Number of animals in the group, 14 days later [1, 3]: 3/12
- percentage of rats with reflex impairment (went into the dark chamber), 24 hours later [1, 3]: 8.3%
- percentage of rats with reflex impairment (went into the dark chamber), 7 days later [1, 3]: 8.3%
- percentage of rats with reflex impairment (went into the dark chamber), 14 days later [1, 3]: 25%
- number of rats who forgot about the pain stimulation, times less compared to Active Control group ([1]; 1 mg/kg, 24 hours after the CPAR training): 5 times
- number of rats who forgot about the pain stimulation, times less compared to Active Control group ([1]; 1 mg/kg, 7 days after the CPAR training): 7 times
- latent period longer than in the Active control group ([1]; 1 mg/kg, 7 days later): 1.5 times
- number of rats who forgot about the pain stimulation, times less compared to Active Control group ([1]; 1 mg/kg, 14 days after the CPAR training): 2.7 times
- latent period longer than in the Active control group ([1]; 1 mg/kg, 14 days later): 1.9 times

Structure (SMILES): NC(=O)CN1CCCC1=O [Piracetam]
- CPAR recalling test 24 hours later: Latent time of the reflex [2, 4]: 97.17 ± 21.43 s
- CPAR training Latent time of the reflex [2, 4]: 19.11 ± 5.28 s
- CPAR recalling test 24 hours later: Number of animals that did not go into the dark chamber, % [2, 4]: 50%

Structure (SMILES): COC(=O)c1ccc(C(NCCc2ccncc2)C(=O)NCCc2ccncc2)cc1.O=C(O)CCC(=O)O (stereo not shown) [Prototype, methyl 4-[2-oxo-1,2-bis[[2-(4-pyridinyl)ethyl]amino]ethyl]benzoate succinate]
- CPAR recalling test 24 hours later: Latent time of the reflex [2, 5]: 107.86 ± 15.12 s
- CPAR training Latent time of the reflex [2, 5]: 20.38 ± 4.38 s
- CPAR recalling test 24 hours later: Latent time of the reflex [2, 6]: 118.13 ± 17.26 s
- CPAR training Latent time of the reflex [2, 6]: 13.29 ± 2.78 s
- Latent period of going into the dark chamber, Recalling, 24 hours later ([1]; 0.25 mg/kg i.g. 14 days + STZ): 133.1 ± 13.3 s
- Latent period of going into the dark chamber, Recalling, 7 days later ([1]; 0.25 mg/kg i.g. 14 days + STZ): 121.3 ± 17.8 s
- Latent period of going into the dark chamber, Recalling, 14 days later ([1]; 0.25 mg/kg i.g. 14 days + STZ): 102.8 ± 19.4 s
- Latent period of going into the dark chamber, Training LP1 ([1]; 0.25 mg/kg i.g. 14 days + STZ): 24.3 ± 5.1 s
- Number of animals with amnesia that went into the dark chamber during the CPAR recalling test/Number of animals in the group, 24 hours later ([1]; 0.25 mg/kg i.g. + STZ): 4/12
- Number of animals with amnesia that went into the dark chamber during the CPAR recalling test/Number of animals in the group, 7 days later ([1]; 0.25 mg/kg i.g. + STZ): 5/12
- Number of animals with amnesia that went into the dark chamber during the CPAR recalling test/Number of animals in the group, 14 days later ([1]; 0.25 mg/kg i.g. + STZ): 6/12
- percentage of rats with reflex impairment (went into the dark chamber), 24 hours later ([1]; 0.25 mg/kg i.g. + STZ): 33.3%
- percentage of rats with reflex impairment (went into the dark chamber), 7 days later ([1]; 0.25 mg/kg i.g. + STZ): 41.7%
- percentage of rats with reflex impairment (went into the dark chamber), 14 days later ([1]; 0.25 mg/kg i.g. + STZ): 50%
- Latent period of going into the dark chamber, Recalling, 24 hours later ([1]; 1.0 mg/kg i.g. 14 days + STZ): 147.7 ± 16.2 s
- Latent period of going into the dark chamber, Recalling, 7 days later ([1]; 1.0 mg/kg i.g. 14 days + STZ): 132.3 ± 2.8 s
- Latent period of going into the dark chamber, Recalling, 14 days later ([1]; 1.0 mg/kg i.g. 14 days + STZ): 124.9 ± 20.3 s
- Latent period of going into the dark chamber, Training LP1 ([1]; 1.0 mg/kg i.g. 14 days + STZ): 30.1 ± 12.1 s
- Number of animals with amnesia that went into the dark chamber during the CPAR recalling test/Number of animals in the group, 24 hours later [1, 3]: 3/12
- Number of animals with amnesia that went into the dark chamber during the CPAR recalling test/Number of animals in the group, 7 days later [1, 3]: 4/12
- Number of animals with amnesia that went into the dark chamber during the CPAR recalling test/Number of animals in the group, 14 days later [1, 3]: 5/12
- percentage of rats with reflex impairment (went into the dark chamber), 24 hours later [1, 3]: 25%
- percentage of rats with reflex impairment (went into the dark chamber), 7 days later [1, 3]: 33.3%
- percentage of rats with reflex impairment (went into the dark chamber), 14 days later [1, 3]: 41.7%
